Test results from patent US11174252B2, “Heterocyclic compounds as kinase inhibitors” (priority 2018, dated 2021).
Where two headings read alike, the source gives them in different places.

Assays:
CDK4 = CDK4 (Homo sapiens (Human), UniProt P11802); assay: In vitro kinase inhibition, luminescence (ADP-Glo) with retinoblastoma substrate; format: biochemical
CDK6 = CDK6 (Homo sapiens (Human), UniProt Q00534); assay: biochemical; format: biochemical
CDK1 (cyclin B) = CDK1 (cyclin B) (Homo sapiens (Human), UniProt P06493); assay: Z'-LYTE kinase assay; format: biochemical
From the text: The following equations were used for Z′-LYTE™ Screening Assay Data Analysis.

CDK2 (cyclin A) = CDK2 (cyclin A) (Homo sapiens (Human), UniProt P24941); assay: Z'-LYTE kinase assay; format: biochemical
Protocol: IC50 values of compounds against CDK2 (cyclin A) were determined by Z'-LYTETM. […] The following equations were used for Z'-LYTETM Screening Assay Data Analysis.

MCF-7 = assay: Cancer cell proliferation assay, single agent; format: cell-based; settings: Homo sapiens
DU4475 = assay: Cancer cell proliferation assay, single agent; format: cell-based; settings: Homo sapiens
FMS kinase = FMS kinase (Homo sapiens (Human), UniProt P07333); assay: LanthaScreen kinase assay (ATP, fluorescent-PolyGT substrate, TR-FRET); format: biochemical
PI3Kδ kinase = PI3Kδ kinase (Homo sapiens (Human), UniProt O00329); assay: PI3Kδ kinase ADP-Glo assay (Reaction Biology Corporation)
[1] = MCF7, MCF-7 cells, treated for 24-168 hours, read-out: IC50 (nM) MCF-7
[2] = DU-4475, DU4475 cells, treated for 24-168 hours, read-out: IC50 (nM) DU4475
[3] = DU-4475, read-out: IC50 (nM) DU4475
[4] = MCF7, read-out: IC50 (nM) MCF-7

Chain of CDK1 (cyclin B) (P06493 whole entry): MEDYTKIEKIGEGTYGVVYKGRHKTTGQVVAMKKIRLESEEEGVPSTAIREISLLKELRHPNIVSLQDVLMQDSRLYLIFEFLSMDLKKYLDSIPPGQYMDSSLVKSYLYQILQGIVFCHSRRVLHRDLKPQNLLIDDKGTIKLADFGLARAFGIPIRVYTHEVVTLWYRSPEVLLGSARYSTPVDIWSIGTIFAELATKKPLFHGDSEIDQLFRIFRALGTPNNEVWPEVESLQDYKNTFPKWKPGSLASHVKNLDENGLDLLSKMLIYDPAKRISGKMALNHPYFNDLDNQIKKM
Chain of CDK1 (cyclin B) (P14635 whole entry partner): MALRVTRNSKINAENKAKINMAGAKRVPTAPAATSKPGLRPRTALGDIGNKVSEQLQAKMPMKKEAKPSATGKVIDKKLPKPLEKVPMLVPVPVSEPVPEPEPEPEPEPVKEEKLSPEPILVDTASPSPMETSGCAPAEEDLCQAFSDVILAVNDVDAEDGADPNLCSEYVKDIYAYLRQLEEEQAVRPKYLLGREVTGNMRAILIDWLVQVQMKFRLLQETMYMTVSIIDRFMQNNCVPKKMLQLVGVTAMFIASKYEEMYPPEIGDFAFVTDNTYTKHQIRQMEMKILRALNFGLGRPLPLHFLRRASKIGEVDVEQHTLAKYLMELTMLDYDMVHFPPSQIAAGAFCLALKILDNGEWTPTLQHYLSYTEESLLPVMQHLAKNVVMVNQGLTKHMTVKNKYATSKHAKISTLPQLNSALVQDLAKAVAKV
Chain of FMS kinase (P07333 20-972): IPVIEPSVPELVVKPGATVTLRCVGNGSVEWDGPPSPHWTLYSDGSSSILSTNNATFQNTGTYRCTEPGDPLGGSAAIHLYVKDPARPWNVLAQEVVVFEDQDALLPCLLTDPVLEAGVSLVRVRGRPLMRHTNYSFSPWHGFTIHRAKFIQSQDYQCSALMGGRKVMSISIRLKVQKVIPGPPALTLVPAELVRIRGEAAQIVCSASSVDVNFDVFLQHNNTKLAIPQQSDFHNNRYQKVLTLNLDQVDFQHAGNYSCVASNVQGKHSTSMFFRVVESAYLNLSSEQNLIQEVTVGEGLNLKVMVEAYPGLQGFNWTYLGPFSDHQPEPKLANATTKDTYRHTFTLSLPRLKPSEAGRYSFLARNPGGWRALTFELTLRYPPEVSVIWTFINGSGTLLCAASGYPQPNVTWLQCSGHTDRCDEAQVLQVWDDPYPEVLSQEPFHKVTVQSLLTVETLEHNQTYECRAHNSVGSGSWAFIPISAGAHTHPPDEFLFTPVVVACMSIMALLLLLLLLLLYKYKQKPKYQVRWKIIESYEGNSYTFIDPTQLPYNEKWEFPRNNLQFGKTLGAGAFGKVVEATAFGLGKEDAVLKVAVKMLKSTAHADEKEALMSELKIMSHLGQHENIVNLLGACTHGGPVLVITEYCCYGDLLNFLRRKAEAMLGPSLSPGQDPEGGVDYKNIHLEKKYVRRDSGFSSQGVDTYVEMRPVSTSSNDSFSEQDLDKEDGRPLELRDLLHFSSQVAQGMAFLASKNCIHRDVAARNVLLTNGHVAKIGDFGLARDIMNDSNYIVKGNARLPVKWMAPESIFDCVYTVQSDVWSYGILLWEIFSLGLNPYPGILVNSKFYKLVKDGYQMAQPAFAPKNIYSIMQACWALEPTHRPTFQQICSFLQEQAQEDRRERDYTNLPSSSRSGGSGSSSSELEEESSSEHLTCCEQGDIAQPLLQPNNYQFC
Chain of PI3Kδ kinase (O00329 whole entry): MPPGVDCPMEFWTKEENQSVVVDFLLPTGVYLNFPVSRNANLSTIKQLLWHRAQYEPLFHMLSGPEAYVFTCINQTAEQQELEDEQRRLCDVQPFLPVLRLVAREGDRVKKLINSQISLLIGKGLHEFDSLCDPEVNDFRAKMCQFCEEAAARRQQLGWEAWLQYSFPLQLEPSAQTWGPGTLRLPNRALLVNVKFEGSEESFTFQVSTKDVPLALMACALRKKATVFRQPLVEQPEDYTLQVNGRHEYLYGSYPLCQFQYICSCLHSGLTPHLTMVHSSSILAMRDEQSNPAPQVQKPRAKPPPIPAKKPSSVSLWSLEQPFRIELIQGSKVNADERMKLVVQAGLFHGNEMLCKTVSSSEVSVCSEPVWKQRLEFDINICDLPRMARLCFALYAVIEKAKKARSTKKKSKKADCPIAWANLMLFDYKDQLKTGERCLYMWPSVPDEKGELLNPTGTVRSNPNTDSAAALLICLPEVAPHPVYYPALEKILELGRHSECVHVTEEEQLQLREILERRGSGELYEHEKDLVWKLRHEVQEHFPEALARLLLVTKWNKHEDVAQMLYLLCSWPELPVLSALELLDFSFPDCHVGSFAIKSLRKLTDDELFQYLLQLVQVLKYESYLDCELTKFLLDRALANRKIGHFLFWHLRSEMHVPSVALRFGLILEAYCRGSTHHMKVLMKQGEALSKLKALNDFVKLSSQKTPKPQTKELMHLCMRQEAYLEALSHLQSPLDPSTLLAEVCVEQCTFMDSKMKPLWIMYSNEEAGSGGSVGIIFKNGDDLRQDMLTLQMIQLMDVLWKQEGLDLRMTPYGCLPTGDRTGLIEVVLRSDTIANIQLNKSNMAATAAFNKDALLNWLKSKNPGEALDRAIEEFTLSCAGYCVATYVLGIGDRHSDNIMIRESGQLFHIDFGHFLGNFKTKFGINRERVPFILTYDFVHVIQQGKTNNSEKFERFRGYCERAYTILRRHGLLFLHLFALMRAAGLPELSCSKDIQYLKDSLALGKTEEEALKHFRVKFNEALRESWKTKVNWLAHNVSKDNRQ
Chain of PI3Kδ kinase (P27986 whole entry partner): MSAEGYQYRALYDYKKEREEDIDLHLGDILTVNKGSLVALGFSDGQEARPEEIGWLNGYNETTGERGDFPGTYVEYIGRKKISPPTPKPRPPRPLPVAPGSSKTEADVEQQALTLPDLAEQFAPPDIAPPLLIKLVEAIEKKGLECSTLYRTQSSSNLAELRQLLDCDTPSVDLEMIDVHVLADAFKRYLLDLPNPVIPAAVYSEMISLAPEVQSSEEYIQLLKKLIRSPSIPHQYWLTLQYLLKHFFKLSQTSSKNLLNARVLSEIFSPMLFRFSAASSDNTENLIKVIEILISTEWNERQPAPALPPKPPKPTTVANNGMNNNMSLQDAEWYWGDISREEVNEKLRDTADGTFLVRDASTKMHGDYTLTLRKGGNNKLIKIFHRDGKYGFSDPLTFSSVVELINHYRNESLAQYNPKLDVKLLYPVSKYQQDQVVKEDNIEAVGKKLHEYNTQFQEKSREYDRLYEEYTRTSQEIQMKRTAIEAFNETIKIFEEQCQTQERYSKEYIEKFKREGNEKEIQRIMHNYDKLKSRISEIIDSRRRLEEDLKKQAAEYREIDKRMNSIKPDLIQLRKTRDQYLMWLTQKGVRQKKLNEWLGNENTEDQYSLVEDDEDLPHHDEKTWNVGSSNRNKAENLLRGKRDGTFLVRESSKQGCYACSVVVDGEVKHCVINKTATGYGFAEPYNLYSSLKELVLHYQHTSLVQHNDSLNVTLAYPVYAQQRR
Chain of CDK4 (P11802 whole entry): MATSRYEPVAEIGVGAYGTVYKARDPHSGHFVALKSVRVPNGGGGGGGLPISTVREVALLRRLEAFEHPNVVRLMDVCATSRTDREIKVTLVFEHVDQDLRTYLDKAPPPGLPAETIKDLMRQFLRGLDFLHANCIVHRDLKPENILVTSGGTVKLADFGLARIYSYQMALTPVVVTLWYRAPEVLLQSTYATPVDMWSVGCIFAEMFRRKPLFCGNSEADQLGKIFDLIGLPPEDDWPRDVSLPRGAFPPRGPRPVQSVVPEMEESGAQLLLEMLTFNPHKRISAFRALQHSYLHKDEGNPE
Chain of CDK4 (P24385 whole entry partner): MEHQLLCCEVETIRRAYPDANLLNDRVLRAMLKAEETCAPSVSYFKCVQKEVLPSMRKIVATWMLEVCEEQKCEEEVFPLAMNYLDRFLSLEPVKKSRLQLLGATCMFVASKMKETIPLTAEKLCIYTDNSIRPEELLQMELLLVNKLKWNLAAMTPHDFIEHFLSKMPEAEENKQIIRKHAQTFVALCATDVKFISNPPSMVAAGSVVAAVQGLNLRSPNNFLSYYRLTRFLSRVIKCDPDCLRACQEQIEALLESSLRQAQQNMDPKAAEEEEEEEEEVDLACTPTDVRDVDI

IC50 (CDK2 (cyclin A)) | IC50 (MCF-7; [1]) | IC50 (DU4475; [2]) | SMILES | IC50 (CDK4) | IC50 (CDK6) | IC50 (CDK1 (cyclin B)) | IC50 (DU4475; [3]) | IC50 (MCF-7; [4]) | IC50 (FMS kinase) | IC50 (PI3Kδ kinase; read-out: PI3Kδ IC50) | IC50 (PI3Kδ kinase)
0.033 µM | 1090 nM | 1480 nM | Fc1cnc(Nc2ccc3c(n2)CCNC3)nc1-c1cc(F)c2c(c1)N(C1CCCC1)CCO2 [Compound 509, N-(4-(4-cyclopentyl-8-fluoro-3,4-dihydro-2H-benzo[b][1,4]oxazin-6-yl)-5-fluoropyrimidin-2-yl)-5,6,7,8-tetrahydro-1,6-naphthyridin-2-amine] | 0.005 µM | 0.01 µM | 0.078 µM |  |  |  |  | 
0.0032 µM | < 5 nM | 20 nM | CC(C)N1CCOc2c(F)cc(-c3nc(Nc4ccc(S(N)(=O)=O)cc4)ncc3F)cc21 [Compound 507, 4-((5-fluoro-4-(8-fluoro-4-isopropyl-3,4-dihydro-2H-benzo[b][1,4]oxazin-6-yl)pyrimidin-2-yl)amino)benzenesulfonamide] | 0.006 µM | 0.013 µM | 0.0013 µM |  |  |  |  | 
 |  |  | CC(C)N1CCOc2c(F)cc(-c3nc(Nc4cnn(C5CCN(C)CC5)c4)ncc3F)cc21 [Compound 497, 5-fluoro-4-(8-fluoro-4-isopropyl-3,4-dihydro-2H-benzo[b][1,4]oxazin-6-yl)-N-(1-(1-methylpiperidin-4-yl)-1H-pyrazol-4-yl)pyrimidin-2-amine] |  |  | 0.085 µM | 95 nM | 40 nM |  |  | 
 |  |  | CC(C)CN1CCOc2c(F)cc(-c3nc(Nc4ccc(N5CCC(N(C)C)CC5)c(F)c4)ncc3F)cc21 [Compound 480, N-(4-(4-(dimethylamino)piperidin-1-yl)-3-fluorophenyl)-5-fluoro-4-(8-fluoro-4-isobutyl-3,4-dihydro-2H-benzo[b][1,4]oxazin-6-yl)pyrimidin-2-amine] | 0.0055 µM | 0.014 µM |  | 435 nM | 190 nM | 0.082 µM | 1.16 µM | 
 |  |  | CC(C)N1CCOc2c(F)cc(-c3nc(Nc4ccc(N5CCN(C)CC5=O)cn4)ncc3F)cc21 [Compound 472, 1-(6-((5-fluoro-4-(8-fluoro-4-isopropyl-3,4-dihydro-2H-benzo[b][1,4]oxazin-6-yl)pyrimidin-2-yl)amino)pyridin-3-yl)-4-methylpiperazin-2-one] | 0.0025 µM |  |  | 570 nM | 30 nM |  |  | 29.1 µM
 |  |  | CN1CCC(c2ccc(Nc3ncc(F)c(-c4cc(F)c5c(c4)N(C4CCCC4)CCO5)n3)cc2F)CC1 [Compound 471, 4-(4-cyclopentyl-8-fluoro-3,4-dihydro-2H-benzo[b][1,4]oxazin-6-yl)-5-fluoro-N-(3-fluoro-4-(1-methylpiperidin-4-yl)phenyl)pyrimidin-2-amine] | 0.01 µM | 0.053 µM |  | 110 nM | 45 nM | 0.454 µM | 1.99 µM | 
 |  |  | Fc1cnc(Nc2ccc(N3CCOCC3)cn2)nc1-c1cc(F)c2c(c1)N(C1CCC1)CCO2 [Compound 487, 4-(4-cyclobutyl-8-fluoro-3,4-dihydro-2H-benzo[b][1,4]oxazin-6-yl)-5-fluoro-N-(5-morpholinopyridin-2-yl)pyrimidin-2-amine] | 0.055 µM | 0.112 µM |  | 2170 nM | 615 nM | > 5 µM | > 50 µM | 
0.074 µM | 435 nM | 405 nM | CC(C)N1CCOc2c(F)cc(-c3nc(Nc4ccc5c(c4)C(=O)NCC5)ncc3F)cc21 [Compound 502, 7-((5-fluoro-4-(8-fluoro-4-isopropyl-3,4-dihydro-2H-benzo[b][1,4]oxazin-6-yl)pyrimidin-2-yl)amino)-3,4-dihydroisoquinolin-1(2H)-one] | 0.012 µM | 0.028 µM | 0.069 µM |  |  |  |  | 
0.074 µM | 55 nM | 75 nM | COCCNS(=O)(=O)c1ccc(Nc2ncc(F)c(-c3cc(F)c4c(c3)N(C(C)C)CCO4)n2)cc1 [Compound 523, 4-(5-fluoro-4-(8-fluoro-4-isopropyl-3,4-dihydro-2H-benzo[b][1,4]oxazin-6-yl)pyrimidin-2-ylamino)-N-(2-methoxyethyl)benzenesulfonamide] | 0.02 µM | 0.051 µM | 0.021 µM |  |  |  |  | 
0.003 µM | 17 nM | 50 nM | CC(C)N1CCOc2c(F)cc(-c3nc(Nc4ccc(S(=O)(=O)NCCN(C)C)cc4)ncc3F)cc21 [Compound 513, N-(2-(dimethylamino)ethyl)-4-((5-fluoro-4-(8-fluoro-4-isopropyl-3,4-dihydro-2H-benzo[b][1,4]oxazin-6-yl)pyrimidin-2-yl)amino)benzenesulfonamide] | 0.002 µM | 0.008 µM | < 0.001 µM |  |  |  |  | 
 |  |  | OC1CCN(c2ccc(Nc3ncc(F)c(-c4cc(F)c5c(c4)N(C4CCC4)CCO5)n3)nc2)CC1 [Compound 486, 1-(6-((4-(4-cyclobutyl-8-fluoro-3,4-dihydro-2H-benzo[b][1,4]oxazin-6-yl)-5-fluoropyrimidin-2-yl)amino)pyridin-3-yl)piperidin-4-ol] | 0.016 µM | 0.041 µM |  | 1450 nM | 325 nM | > 5 µM | > 50 µM | 
 | 470 nM | 555 nM | CC(C)N1CCOc2c(F)cc(-c3nc(Nc4ccc(N5CCC(CO)CC5)cn4)ncc3F)cc21 [Compound 485, (1-(6-((5-fluoro-4-(8-fluoro-4-isopropyl-3,4-dihydro-2H-benzo[b][1,4]oxazin-6-yl)pyrimidin-2-yl)amino)pyridin-3-yl)piperidin-4-yl)methanol] |  |  |  |  |  | 3.25 µM | > 50 µM | 
 |  |  | CC(C)CN1CCOc2c(F)cc(-c3nc(Nc4ccc(N5CCC(O)CC5)cn4)ncc3F)cc21 [Compound 488, 1-(6-((5-fluoro-4-(8-fluoro-4-isobutyl-3,4-dihydro-2H-benzo[b][1,4]oxazin-6-yl)pyrimidin-2-yl)amino)pyridin-3-yl)piperidin-4-ol] | 0.101 µM | 0.2 µM |  | 2560 nM | 830 nM | > 5 µM | > 50 µM | 
 | 465 nM | 450 nM | CC(C)N1CCOc2c(F)cc(-c3nc(Nc4ccc(N5CCC(CCO)CC5)cn4)ncc3F)cc21 [Compound 491, 2-(1-(6-((5-fluoro-4-(8-fluoro-4-isopropyl-3,4-dihydro-2H-benzo[b][1,4]oxazin-6-yl)pyrimidin-2-yl)amino)pyridin-3-yl)piperidin-4-yl)ethan-1-ol] |  |  |  |  |  | 4.59 µM | > 50 µM | 

SMILES | IC50 (CDK2 (cyclin A)) | IC50 (MCF-7; [1]) | IC50 (DU4475; [2]) | IC50 (CDK4) | IC50 (CDK6) | IC50 (CDK1 (cyclin B)) | IC50 (DU4475; [3]) | IC50 (MCF-7; [4]) | IC50 (FMS kinase) | IC50 (PI3Kδ kinase; read-out: PI3Kδ IC50) | IC50 (PI3Kδ kinase)
CC(C)N1CCOc2c(F)cc(-c3nc(Nc4ccc(N5CCC(CN)CC5)cn4)ncc3F)cc21 [Compound 518, N-(5-(4-(aminomethyl)piperidin-1-yl)pyridin-2-yl)-5-fluoro-4-(8-fluoro-4-isopropyl-3,4-dihydro-2H-benzo[b][1,4]oxazin-6-yl)pyrimidin-2-amine] | 0.56 µM | 1020 nM |  | 0.004 µM | 0.028 µM | 1.19 µM | 1330 nM |  |  |  | 
CC(C)CN1CCOc2c(F)cc(-c3nc(Nc4ccc(C5CCN(C)CC5)cn4)ncc3F)cc21 [Compound 479, 5-fluoro-4-(8-fluoro-4-isobutyl-3,4-dihydro-2H-benzo[b][1,4]oxazin-6-yl)-N-(5-(1-methylpiperidin-4-yl)pyridin-2-yl)pyrimidin-2-amine] | 0.044 µM |  |  | 0.0025 µM | 0.005 µM | 0.213 µM |  | 240 nM | 2.6 µM |  | 
CC(C)N1CCOc2c(F)cc(-c3nc(Nc4cc(C5CCN(C)CC5)n[nH]4)ncc3F)cc21 [Compound 499, 5-fluoro-4-(8-fluoro-4-isopropyl-3,4-dihydro-2H-benzo[b][1,4]oxazin-6-yl)-N-(3-(1-methylpiperidin-4-yl)-1H-pyrazol-5-yl)pyrimidin-2-amine] | 0.019 µM | 175 nM |  |  |  | 0.069 µM | 345 nM |  |  |  | 
CC(C)N1CCOc2c(F)cc(-c3nc(Nc4cc(C5CCN(C)CC5)no4)ncc3F)cc21 [Compound 495, N-(5-fluoro-4-(8-fluoro-4-isopropyl-3,4-dihydro-2H-benzo[b][1,4]oxazin-6-yl)pyrimidin-2-yl)-3-(1-methylpiperidin-4-yl)isoxazol-5-amine] | 0.002 µM |  |  |  |  | 0.005 µM | 310 nM | 110 nM |  |  | 
CC(C)CN1CCOc2c(F)cc(-c3nc(Nc4ccc(N5CCOCC5)cn4)ncc3F)cc21 [Compound 489, 5-fluoro-4-(8-fluoro-4-isobutyl-3,4-dihydro-2H-benzo[b][1,4]oxazin-6-yl)-N-(5-morpholinopyridin-2-yl)pyrimidin-2-amine] |  | 1820 nM |  | 0.09 µM | 0.159 µM |  | 4500 nM |  | > 5 µM | > 50 µM | 
CC(C)CN1CCOc2c(F)cc(-c3nc(Nc4ccc(C5CCN(C)CC5)c(F)c4)ncc3F)cc21 [Compound 476, 5-fluoro-N-(3-fluoro-4-(1-methylpiperidin-4-yl)phenyl)-4-(8-fluoro-4-isobutyl-3,4-dihydro-2H-benzo[b][1,4]oxazin-6-yl)pyrimidin-2-amine] |  | 65 nM |  | 0.004 µM | 0.025 µM |  | 135 nM |  | 0.174 µM | 0.703 µM | 
